91 compounds from ChEMBL document CHEMBL3727358, “Inhibitors of inducible form of 6-phosphofructose-2-kinase” (2014) can be followed below.

A value given as a limit tells only on which side of the number the result lay.

Chain of 6-phosphofructo-2-kinase/fructose-2,6-bisphosphatase 3 (Q16875 whole entry): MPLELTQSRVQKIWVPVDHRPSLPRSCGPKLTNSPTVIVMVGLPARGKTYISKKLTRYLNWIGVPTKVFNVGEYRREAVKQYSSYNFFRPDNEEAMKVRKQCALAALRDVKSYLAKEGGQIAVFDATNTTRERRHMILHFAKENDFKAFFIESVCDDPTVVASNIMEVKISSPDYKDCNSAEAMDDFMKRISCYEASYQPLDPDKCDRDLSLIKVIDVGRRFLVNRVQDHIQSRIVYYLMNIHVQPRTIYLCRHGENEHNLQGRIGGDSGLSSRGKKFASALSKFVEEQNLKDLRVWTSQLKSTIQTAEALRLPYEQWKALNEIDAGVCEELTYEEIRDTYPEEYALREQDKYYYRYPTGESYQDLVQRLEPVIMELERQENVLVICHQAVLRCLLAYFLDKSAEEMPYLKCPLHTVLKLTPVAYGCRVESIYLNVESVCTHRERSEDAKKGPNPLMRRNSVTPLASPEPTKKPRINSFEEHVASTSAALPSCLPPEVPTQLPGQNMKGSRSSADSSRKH

The test has as its target 6-phosphofructo-2-kinase/fructose-2,6-bisphosphatase 3 (Homo sapiens, UniProt Q16875). Put plainly: Inhibition of iPFK2 (unknown origin) assessed as reduction in enzyme-mediated fructose-6-phosphate phosphorylation by measuring ATP consumption incubated for 3 hrs by luciferase-luciferin-coupled chemiluminescence assay.
A word on the IC50: it is the midpoint of a concentration-inhibition curve. With `COc1cccc(CNc2cc(-c3ccc4occ(C)c4c3)nc(C)n2)c1`, the IC50 worked out at 500 nM.
With `CCc1coc2ccc(-c3cc(N[C@@H](C)c4cccc(OC)c4)nc(C)n3)cc12` the figure was greater than 1000 nM; with `Cc1nc(NCCCN(C)c2ccccc2)cc(-c2ccc3ncsc3c2)n1`, greater than 1000 nM.
As for `COc1cccc(-c2cc(NC(C)c3cccc(S(N)(=O)=O)c3)nc(C)n2)c1` (stereo unspecified), the figure is greater than 1000 nM.
As for `COc1cccc([C@H](C)Nc2cc(-c3cccc(OC(F)(F)F)c3)nc(C)n2)c1`, the figure is greater than 1000 nM.
Consider `Cc1nc(NC(C)c2ccnc(Cl)c2)cc(-c2ccc3ncsc3c2)n1` (stereo unspecified), for which the IC50 was 500 nM.
Regarding `CNC(=O)COc1cccc(C(C)Nc2cc(-c3cccc(OC)c3)nc(C)n2)c1` (stereo unspecified), the half-maximal inhibitory concentration (IC50) stood at 500 nM.
On to `Cc1nc(NC(C)c2cccc(OCc3noc(C)n3)c2)cc(-c2ccc3ncsc3c2)n1` (stereo unspecified), for which the IC50 was found to be 500 nM.
As for `COc1cccc(-c2cc(NC(C)c3cccc(S(=O)(=O)NCC#N)c3)nc(C)n2)c1` (stereo unspecified), the figure is 500 nM; as for `Cc1nc(N[C@@H]2CCCc3ccccc32)cc(-c2cccc(C=O)c2)n1`, greater than 1000 nM; as for `CCOC(=O)CCCOc1cccc(C(C)Nc2cc(-c3ccc4ccn(C)c4c3)nc(C)n2)c1` (stereo unspecified), 500 nM.
As to `Cc1ccc([C@H](C)Nc2cc(-c3ccc4ccn(C)c4c3)nc(C)n2)cc1`, the IC50 worked out at 500 nM.
As for `CNC(=O)COc1cccc(C(C)Nc2cc(-c3ccc4c(c3)OCO4)nc(C)n2)c1` (stereo unspecified), the figure is 500 nM.
As for `Cc1nc(NC[C@@H](C)c2ccccc2)cc(-c2ccc3ncsc3c2)n1`, the figure is greater than 1000 nM; as for `CCc1cccc(-c2cc(N[C@@H]3CCCc4ccccc43)nc(C)n2)c1`, greater than 1000 nM.
With `COc1cccc(-c2cc(NC(C)c3cccc(Br)c3)nc(C)n2)c1` (stereo unspecified), the IC50 is greater than 1000 nM.
With `CCOc1cccc(-c2cc(N[C@@H]3CCCc4ccccc43)nc(C)n2)c1`, the IC50 is greater than 1000 nM.
As for `COc1ccc2c(c1)C(Nc1cc(-c3ccc4ncsc4c3)nc(C)n1)CCC2` (stereo unspecified), the figure is greater than 1000 nM; as for `Cc1nc(NC2Cc3ccccc3C2)cc(-c2ccc3ncsc3c2)n1`, 500 nM.
Consider `CCCCC(CC)CNc1cc(-c2ccc3ncsc3c2)nc(C)n1` (stereo unspecified), for which the IC50 was determined as 500 nM.
As for `COc1cccc(-c2cc(NC(C)c3cccc(S(=O)(=O)N(CC#N)C(=O)OC(C)(C)C)c3)nc(C)n2)c1` (stereo unspecified), the figure is greater than 1000 nM; as for `C#CCNS(=O)(=O)c1cccc(C(C)Nc2cc(-c3ccc4ncsc4c3)nc(C)n2)c1` (stereo unspecified), 500 nM.
With `Cc1nc(NCCc2ccncc2)cc(-c2ccc3ncsc3c2)n1` the figure was greater than 1000 nM; with `COc1cccc(-c2cc(NC(C)c3cccc(O)c3)nc(C)n2)c1` (stereo unspecified), greater than 1000 nM; with `Cc1nc(N[C@@H](C)c2ccc(Cl)cc2)cc(-c2ccc3ccn(C)c3c2)n1`, greater than 1000 nM.
With `Cc1nc(N[C@@H]2CCCc3ccccc32)cc(-c2cccnc2)n1` the figure was greater than 1000 nM; with `CNC(=O)COc1cccc(C(C)Nc2cc(-c3cccc(OC)c3Cl)nc(C)n2)c1` (stereo unspecified), 500 nM.
As for `CCOC(=O)CCCOc1cccc(C(C)Nc2cc(-c3ccc4ncsc4c3)nc(C)n2)c1` (stereo unspecified), the IC50 is greater than 1000 nM.
Consider `Cc1nc(NCc2cc(-c3ccccc3)no2)cc(-c2ccc3ncsc3c2)n1`, for which the IC50 is greater than 1000 nM.
As for `Cc1ccc([C@H](C)Nc2cc(-c3ccc4occ(C)c4c3)nc(C)n2)cc1`, the figure is 500 nM.
For the compound `Cc1nc(NC(C)c2cccc(C#N)c2)cc(-c2ccc3ncsc3c2)n1` (stereo unspecified), the IC50 was found to be 500 nM.
With `COc1cccc([C@H](C)Nc2cc(-c3ccnc(C)c3)nc(C)n2)c1` the figure was greater than 1000 nM.
With `Cc1nc(NCCc2c[nH]cn2)cc(-c2ccc3ncsc3c2)n1` the figure was greater than 1000 nM; with `Cc1nc(N[C@@H]2CCCc3ccccc32)cc(-c2ccncc2)n1`, greater than 1000 nM.
With `Cc1nc(N[C@H](C)c2cccc(-c3cnn(C)c3)c2)cc(-c2ccc3occ(C)c3c2)n1` the figure was 500 nM; with `CCc1coc2ccc(-c3cc(NC(C)c4cccc(O)c4)nc(C)n3)cc12` (stereo unspecified), greater than 1000 nM; with `Cc1nc(NCC2CCCN(C(=O)OC(C)(C)C)C2)cc(-c2ccc3ncsc3c2)n1` (stereo unspecified), greater than 1000 nM.
For the compound `Cc1nc(NC(C)c2cccc(-c3noc(C)n3)c2)cc(-c2ccc3ncsc3c2)n1` (stereo unspecified), the IC50 was greater than 1000 nM.
With `Cc1nc(NC(C)c2cccc(O)c2)cc(-c2ccc3ncsc3c2)n1` (stereo unspecified), the concentration for half-maximal inhibition (IC50) was determined as 500 nM.
As to `Cc1nc(NC(C)c2cccc(-c3cnn(C)c3)c2)cc(-c2ccc3[nH]ccc3c2)n1` (stereo unspecified), the concentration for half-maximal inhibition (IC50) stood at 500 nM.
As for `Cc1nc(NC[C@@H]2CCCN(C(=O)OC(C)(C)C)C2)cc(-c2ccc3ncsc3c2)n1`, the concentration for half-maximal inhibition (IC50) was greater than 1000 nM.
As for `Cc1nc(N[C@@H]2CCCc3ccccc32)cc(-c2cccc(CO)c2)n1`, the half-inhibitory concentration (IC50) was greater than 1000 nM.
As for `Cc1nc(N[C@@H]2CCCc3ccccc32)cc(-c2ccc3c(c2)OCCN3C)n1`, the figure is greater than 1000 nM; as for `CC(=O)c1cccc(-c2cc(N[C@@H]3CCCc4ccccc43)nc(C)n2)c1`, greater than 1000 nM; as for `COc1cccc(C(C)Nc2cc(-c3ccc4occ(C)c4c3)nc(C)n2)c1F` (stereo unspecified), greater than 1000 nM.
Take `COC(=O)CNc1cccc(C(C)Nc2cc(-c3cccc(OC)c3)nc(C)n2)c1` (stereo unspecified): the IC50 is greater than 1000 nM.
For the compound `COc1cccc([C@H](C)Nc2cc(-c3cccc(OC)c3F)nc(C)n2)c1`, the IC50 turned out to be 500 nM.
In the case of `COc1cccc([C@H](C)Nc2cc(-c3cccc(C)c3)nc(C)n2)c1`, the IC50 came out at 500 nM.
Take `COC(=O)CNS(=O)(=O)c1cccc(C(C)Nc2cc(-c3cccc(OC)c3)nc(C)n2)c1` (stereo unspecified): the IC50 was greater than 1000 nM.
As for `COc1cccc([C@H](C)Nc2cc(-c3ccc4c(ccn4C)c3)nc(C)n2)c1`, the figure is greater than 1000 nM.
With `Cc1nc(N[C@@H]2CCCc3ccccc32)cc(-c2ccc3ccccc3c2)n1` the figure was 500 nM.
With `COc1cccc(-c2cc(NC(C)c3cccc(OCC#N)c3)nc(C)n2)c1` (stereo unspecified) the figure was 500 nM; with `CCn1ccc2ccc(-c3cc(N[C@@H](C)c4cccc(OC)c4)nc(C)n3)cc21`, greater than 1000 nM.
As to `COc1cccc([C@H](C)Nc2cc(-c3ccncc3)nc(C)n2)c1`, the IC50 is greater than 1000 nM.
With `Cc1cc(COc2cccc(C(C)Nc3cc(-c4cc5ccccc5n4C)nc(C)n3)c2)n(C)n1` (stereo unspecified) the figure was 500 nM; with `Cc1cccc(-c2cc(N[C@@H]3CCCc4ccccc43)nc(C)n2)c1`, 500 nM.
With `COc1ccc2c(c1)CCCC2Nc1cc(-c2ccc3ncsc3c2)nc(C)n1` (stereo unspecified), the IC50 stood at 500 nM.
With `COc1cccc([C@H](C)Nc2cc(-c3cccnc3)nc(C)n2)c1` the figure was greater than 1000 nM; with `COc1cccc2c1CCCC2Nc1cc(-c2ccc3ncsc3c2)nc(C)n1` (stereo unspecified), greater than 1000 nM.
Regarding `Cc1nc(NC(C)c2cccnc2)cc(-c2ccc3ncsc3c2)n1` (stereo unspecified), the IC50 amounted to 500 nM.
As for `COCCn1ccc2ccc(-c3cc(N[C@@H]4CCCc5ccccc54)nc(C)n3)cc21`, the figure is greater than 1000 nM; as for `COc1cc(-c2cc(NC(C)c3cccc(OCC(N)=O)c3)nc(C)n2)ccc1C` (stereo unspecified), 500 nM; as for `Cc1nc(NC(C)c2cccc(OCCCC(=O)O)c2)cc(-c2ccc3ncsc3c2)n1` (stereo unspecified), 500 nM.
`Cc1nc(NC(C)c2cccc(OCC(=O)O)c2)cc(-c2ccc3ccn(C)c3c2)n1` (stereo unspecified): the IC50 was determined as 500 nM.
As for `CCOC(=O)CNC(=O)COc1cccc(C(C)Nc2cc(-c3ccc4ccn(C)c4c3)nc(C)n2)c1` (stereo unspecified), the figure is 500 nM; as for `Cc1cccc(-c2cc(NC(C)c3cccc(-c4cnn(C)c4)c3)nc(C)n2)c1` (stereo unspecified), 500 nM; as for `CC(C)CCC(C)NC1C=C(c2ccc3ncsc3c2)N=CN1C` (stereo unspecified), greater than 1000 nM.
With `Cc1nc(N[C@@H]2CCCc3ccccc32)cc(-c2cn[nH]c2)n1` the figure was greater than 1000 nM; with `COc1cccc([C@H](C)Nc2cc(-c3ccc(C)c(OC)c3)nc(C)n2)c1`, 500 nM.
With `Cc1nc(NC(C)c2cccc(OCC(=O)N3CCOCC3)c2)cc(-c2ccc3ncsc3c2)n1` (stereo unspecified) the figure was 500 nM; with `COC(=O)COc1cccc(C(C)Nc2cc(-c3cccc(OC)c3)nc(C)n2)c1` (stereo unspecified), greater than 1000 nM.
On to `Cc1nc(N[C@@H]2CCCc3ccccc32)cc(-c2cccc(O)c2)n1`, for which the IC50 was found to be 500 nM.
With `Cc1nc(NCCCC(C)(C)CO)cc(-c2ccc3ncsc3c2)n1` the figure was greater than 1000 nM.
With `COc1cc(-c2cc(NC(C)c3cccc(OCc4ccn(C)n4)c3)nc(C)n2)ccc1C` (stereo unspecified) the figure was 500 nM; with `COc1cccc(-c2cc(N[C@@H]3CCCc4ccccc43)nc(C)n2)c1Cl`, 500 nM.
As for `Cc1nc(NC(C)c2cccc(OCc3ccn[nH]3)c2)cc(-c2ccc3ncsc3c2)n1` (stereo unspecified), the figure is 500 nM; as for `COc1ccc(Cl)c(-c2cc(N[C@@H]3CCCc4ccccc43)nc(C)n2)c1`, greater than 1000 nM; as for `Cc1ccc2c(c1)C(Nc1cc(-c3ccc4ncsc4c3)nc(C)n1)CCO2` (stereo unspecified), greater than 1000 nM.
`Cc1nc(N[C@H]2CCOc3ccccc32)cc(-c2ccc3ncsc3c2)n1`: the IC50 is greater than 1000 nM.
For the compound `Cc1nc(NCc2cccc(-n3cccc3)c2)cc(-c2ccc3ncsc3c2)n1`, the IC50 is greater than 1000 nM.
For `Cc1nc(NC(C)c2cccc(OC(C)(C)C(N)=O)c2)cc(-c2ccc3ncsc3c2)n1` (stereo unspecified), the IC50 was determined as 500 nM.
With `Cc1nc(N[C@@H]2CCCc3ccccc32)cc(-c2cncnc2)n1`, the IC50 was greater than 1000 nM.
Consider `CCc1coc2ccc(-c3cc(NC(C)c4cccc(OCc5cc(C)nn5C)c4)nc(C)n3)cc12` (stereo unspecified), for which the IC50 is greater than 1000 nM.
With `COc1cccc(-c2cc(NC3CCc4ccccc43)nc(C)n2)c1Cl` (stereo unspecified) the figure was 500 nM.
With `Cc1nc(NC(C)c2cccc(C(=N)N)c2)cc(-c2ccc3ncsc3c2)n1` (stereo unspecified) the figure was 500 nM; with `COc1cccc([C@H](C)Nc2cc(-c3cccc(F)c3)nc(C)n2)c1`, 500 nM.
With `COc1cccc(-c2cc(N[C@@H](C)c3cccc(C(F)(F)F)c3)nc(C)n2)c1` the figure was greater than 1000 nM.
As for `Cc1cc(C)c2c(c1)C(Nc1cc(-c3ccc4ncsc4c3)nc(C)n1)CCC2` (stereo unspecified), the concentration for half-maximal inhibition (IC50) is greater than 1000 nM.
Regarding `Cc1nc(NC(C)c2ccc(F)c(OCc3ccnn3C)c2)cc(-c2ccc3ncsc3c2)n1` (stereo unspecified), the half-inhibitory concentration (IC50) is greater than 1000 nM.
For the compound `COc1cccc(-c2cc(NC(C)c3cccc(Br)c3)nc(C)n2)c1Cl` (stereo unspecified), the half-maximal inhibitory concentration (IC50) was determined as 500 nM.
Regarding `COc1ccc(F)c(-c2cc(N[C@@H]3CCCc4ccccc43)nc(C)n2)c1`, the IC50 is greater than 1000 nM.
